Assay results from ChEMBL document CHEMBL4130568, “Benzoxaboroles as Efficient Inhibitors of the β-Carbonic Anhydrases from Pathogenic Fungi: Activity and Modeling Study” (ACS Med Chem Lett, 2017).

Experiments:
[1] = Inhibition of Malassezia globosa beta-carbonic anhydrase incubated for 15 mins prior to testing by stopped flow CO2 hydrase assay
[2] = target: T1, Carbonic anhydrase 2 (Cryptococcus neoformans, UniProt Q3I4V7); assay: Inhibition of Cryptococcus neoformans Can2 incubated for 15 mins prior to testing by stopped flow CO2 hydrase assay
T1 sequence (Q3I4V7 whole entry): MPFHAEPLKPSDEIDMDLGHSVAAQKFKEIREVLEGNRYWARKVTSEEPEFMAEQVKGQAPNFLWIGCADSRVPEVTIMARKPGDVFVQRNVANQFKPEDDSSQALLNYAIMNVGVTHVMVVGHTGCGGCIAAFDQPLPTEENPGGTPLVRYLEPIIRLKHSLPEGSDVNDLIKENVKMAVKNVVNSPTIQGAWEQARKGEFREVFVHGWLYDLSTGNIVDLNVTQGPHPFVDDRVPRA

[3] = target: Carbonic anhydrase 1 (Homo sapiens, UniProt P00915); assay: Inhibition of human carbonic anhydrase-1 incubated for 15 mins prior to testing by stopped flow CO2 hydrase assay
Chain of Carbonic anhydrase 1 (P00915 whole entry): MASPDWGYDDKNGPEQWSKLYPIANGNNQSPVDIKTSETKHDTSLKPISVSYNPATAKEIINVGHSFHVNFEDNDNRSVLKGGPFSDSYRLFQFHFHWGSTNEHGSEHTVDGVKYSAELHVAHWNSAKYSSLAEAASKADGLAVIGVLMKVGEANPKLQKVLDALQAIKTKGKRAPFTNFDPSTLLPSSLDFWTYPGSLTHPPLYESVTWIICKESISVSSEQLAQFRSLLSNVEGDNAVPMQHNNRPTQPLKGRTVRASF

[4] = target: Carbonic anhydrase 2 (Homo sapiens, UniProt P00918); assay: Inhibition of human carbonic anhydrase-2 incubated for 15 mins prior to testing by stopped flow CO2 hydrase assay
[5] = target: T2, Carbonic anhydrase (Candida glabrata CBS 138, UniProt Q6FTL6); assay: Inhibition of Candida glabrata Nce103 incubated for 15 mins prior to testing by stopped flow CO2 hydrase assay; set-up: species or system Nakaseomyces glabratus
T2 sequence (Q6FTL6 whole entry): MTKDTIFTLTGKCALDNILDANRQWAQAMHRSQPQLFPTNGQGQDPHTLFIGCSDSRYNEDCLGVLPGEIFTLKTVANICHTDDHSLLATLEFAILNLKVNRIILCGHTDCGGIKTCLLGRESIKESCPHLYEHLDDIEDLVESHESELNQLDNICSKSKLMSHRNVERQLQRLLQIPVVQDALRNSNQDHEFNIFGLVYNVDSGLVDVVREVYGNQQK

## O=[N+]([O-])c1ccc(NC(=S)Nc2ccc3c(c2)B(O)OC3)cc1
[1]
  Ki: 8680 nM
[2]
  Ki: 79 nM
[3]
  Ki: 385 nM
[4]
  Ki: > 10000 nM
[5]
  Ki: 96 nM

## O=C(NCc1ccccc1)Nc1ccc2c(c1)B(O)OC2
[1]
  Ki: 58200 nM
[2]
  Ki: 602 nM
[3]
  Ki: 557 nM
[4]
  Ki: 439 nM
[5]
  Ki: 201 nM

## O=C(Nc1ccc(C(F)(F)F)cc1)Nc1ccc2c(c1)B(O)OC2
[1]
  Ki: 73600 nM
[2]
  Ki: 84 nM
[3]
  Ki: 487 nM
[4]
  Ki: 456 nM
[5]
  Ki: 96 nM

## O=C(Nc1ccccc1)Nc1ccc2c(c1)B(O)OC2
[1]
  Ki: 63700 nM
[2]
  Ki: 81 nM
[3]
  Ki: 654 nM
[4]
  Ki: 730 nM
[5]
  Ki: 86 nM

## COc1ccc(NC(=S)Nc2ccc3c(c2)B(O)OC3)cc1
[1]
  Ki: 28800 nM
[2]
  Ki: 89 nM
[5]
  Ki: 86 nM

## OB1OCc2ccc(NC(=S)Nc3ccc(C(F)(F)F)cc3)cc21
[1]
  Ki: 49800 nM
[2]
  Ki: 275 nM
[3]
  Ki: 417 nM
[4]
  Ki: 1840 nM
[5]
  Ki: 112 nM

## OB1OCc2ccc(NC(=S)NCc3ccco3)cc21
[1]
  Ki: 6100 nM
[2]
  Ki: 236 nM
[5]
  Ki: 229 nM

## OB1OCc2ccc(NC(=S)NCCc3ccccc3)cc21
[1]
  Ki: 22500 nM
[2]
  Ki: 676 nM
[5]
  Ki: 467 nM

## O=C(NCc1ccco1)Nc1ccc2c(c1)B(O)OC2
[1]
  Ki: 55600 nM
[2]
  Ki: 283 nM
[5]
  Ki: 96 nM

## Nc1ccc2c(c1)B(O)OC2
[1]
  Ki: 44600 nM
[2]
  Ki: 93 nM
[3]
  Ki: 9430 nM
[4]
  Ki: 590 nM
[5]
  Ki: 244 nM

## Cc1cc(Cl)cc(CNC(=O)Nc2ccc3c(c2)B(O)OC3)c1
[1]
  Ki: 86800 nM
[2]
  Ki: 400 nM
[5]
  Ki: 79 nM

## CC(=O)c1ccc(NC(=O)Nc2ccc3c(c2)B(O)OC3)cc1
[1]
  Ki: 62200 nM
[2]
  Ki: 65 nM
[5]
  Ki: 203 nM

## O=C(Nc1ccc2c(c1)B(O)OC2)Nc1c(Cl)cc(Cl)cc1Cl
[1]
  Ki: 98600 nM
[2]
  Ki: 73 nM
[5]
  Ki: 81 nM

## OB1OCc2ccc(NC(=S)Nc3ccc(F)cc3)cc21
[1]
  Ki: 30100 nM
[2]
  Ki: 86 nM
[3]
  Ki: 355 nM
[4]
  Ki: 1500 nM
[5]
  Ki: 86 nM

## O=C(Nc1ccc(Cl)cc1)Nc1ccc2c(c1)B(O)OC2
[1]
  Ki: 77900 nM
[2]
  Ki: 92 nM
[5]
  Ki: 81 nM

## Cc1ccc(NC(=S)Nc2ccc3c(c2)B(O)OC3)cc1
[1]
  Ki: 24900 nM
[2]
  Ki: 181 nM
[5]
  Ki: 89 nM

## OB1OCc2ccc(NC(=S)Nc3ccc4ccccc4c3)cc21
[1]
  Ki: 30600 nM
[2]
  Ki: 573 nM
[5]
  Ki: 339 nM

## O=[N+]([O-])c1ccc2c(c1)B(O)OC2
[1]
  Ki: 91300 nM
[2]
  Ki: 88 nM
[3]
  Ki: 6350 nM
[4]
  Ki: 504 nM
[5]
  Ki: 89 nM

## OB1OCc2ccc(NC(=S)Nc3ccccc3)cc21
[1]
  Ki: 21300 nM
[2]
  Ki: 198 nM
[3]
  Ki: 532 nM
[4]
  Ki: 1620 nM
[5]
  Ki: 97 nM

## O=C(Nc1ccc(F)cc1)Nc1ccc2c(c1)B(O)OC2
[1]
  Ki: 76200 nM
[2]
  Ki: 78 nM
[3]
  Ki: 235 nM
[4]
  Ki: 480 nM
[5]
  Ki: 75 nM

## OB1OCc2ccccc21 [BENZOXABOROLE]
[1]
  Ki: 109000 nM
[2]
  Ki: 174 nM
[5]
  Ki: 260 nM

## OB1OCc2cc(F)ccc21 [TAVABOROLE]
[1]
  Ki: 99000 nM
[2]
  Ki: 89 nM
[3]
  Ki: 2020 nM
[4]
  Ki: 462 nM
[5]
  Ki: 72 nM
